Source: EPA's ToxRefDB 2

Columns and labels:
rat [1] = conditions: Sub-acute repeat dose toxicity, Oral, Gavage/Intubation, dose end: 28 day, group: systemic
rat [2] = conditions: Sub-acute repeat dose toxicity, Oral, Gavage/Intubation, dose end: 7 day, group: systemic
dog = conditions: Sub-acute repeat dose toxicity, beagle, Oral, Gavage/Intubation, dose end: 28 day, group: systemic
mouse [3] = conditions: Combined chronic toxicity/carcinogenicity, other, Inhalation, Whole-Body, dose end: 24 month, group: systemic
rat [4] = conditions: Carcinogenicity; fischer; Oral; Gavage/Intubation; dose end: 2 year; group: systemic; systemic / pathology microscopic / kidney / casts + systemic / pathology microscopic / kidney / degeneration + systemic / pathology …
mouse [5] = conditions: Carcinogenicity; b6c3f1; Oral; Gavage/Intubation; dose end: 103 week; group: systemic; systemic / pathology microscopic / kidney / [other] + systemic / pathology microscopic / kidney / degeneration + systemic / pathology …
mouse [6] = conditions: Subchronic inhalation toxicity, other, Whole-Body, dose end: 13 week, group: systemic
rat [7] = conditions: Combined chronic toxicity/carcinogenicity, fischer, Inhalation, Whole-Body, dose end: 24 month, group: systemic
rat [8] = conditions: Subchronic oral toxicity in rodents, fischer, Gavage/Intubation, dose end: 13 week, group: systemic, systemic / pathology microscopic / kidney / degeneration
rat [9] = conditions: Subchronic inhalation toxicity, fischer, Whole-Body, dose end: 13 week, group: systemic
rat [10] = conditions: Subchronic oral toxicity in rodents, fischer, Gavage/Intubation, dose end: 13 week, group: systemic, systemic / in life observation / body weight / body weight gain + systemic / pathology microscopic / kidney / [other] + systemic / pathology…
mouse [11] = conditions: Subchronic oral toxicity in rodents, b6c3f1, Gavage/Intubation, dose end: 13 week, group: systemic, systemic / pathology microscopic / liver / [other] + systemic / pathology microscopic / liver / cytomegaly + systemic / pathology …
rat [12] = conditions: Prenatal developmental toxicity study, sprague dawley, Oral, Gavage/Intubation, dose end: 15 GD
mouse [13] = conditions: Subchronic oral toxicity in rodents, B6C3F1, Gavage/Intubation, dose end: 13 week, group: systemic, systemic / pathology microscopic / liver / cytomegaly
[14] = systemic / clinical chemistry / alanine aminotransferase (alt/sgpt) / alanine aminotransferase (alt/sgpt) + systemic / clinical chemistry / …
[15] = systemic / in life observation / clinical signs / lacrimation or red-colored tears + systemic / in life observation / clinical signs / …
[16] = systemic / clinical chemistry / [other] / [other] + systemic / clinical chemistry / albumin / albumin + systemic / clinical chemistry / …
[17] = systemic / in life observation / clinical signs / salivation
[18] = systemic / in life observation / body weight / body weight + systemic / in life observation / clinical signs / dialated pupils + systemic / …
[19] = systemic / in life observation / clinical signs / dialated pupils + systemic / in life observation / clinical signs / distended abdomens + …
[20] = systemic / pathology microscopic / liver / hepatoblastoma + systemic / pathology microscopic / liver / hepatocellular adenoma + systemic / …
[21] = systemic / in life observation / body weight / body weight + systemic / organ weight / liver / relative to body weight
[22] = systemic / organ weight / liver / absolute + systemic / organ weight / liver / relative to body weight + systemic / pathology microscopic / …
[23] = systemic / in life observation / body weight / body weight
[24] = group: developmental, developmental / developmental malformation / bone / supernumerary + systemic / in life observation / body weight / fetal weight
[25] = group: maternal, systemic / in life observation / body weight / body weight gain + systemic / in life observation / food consumption / food consumption

Question: `CSc1ccc(Oc2ccc(S(N)(=O)=O)cc2CN(C)C)cc1C` was tested. Which LOAEL (rat [1]; [14]) did it give?
Answer: Its LOAEL is greater than 500 mg/kg/day.

Question: And the NOAEL (rat [1]; [14])?
Answer: Its NOAEL is no less than 500 mg/kg/day.

Question: And the LEL (rat [1]; [15])?
Answer: The LEL was 5 mg/kg/day.

Question: What about the NEL (rat [1]; [15]) of the same compound?
Answer: The NEL was less than 5 mg/kg/day.

Question: What about the LOAEL (rat [2]; [16]) of the same compound?
Answer: Its LOAEL is greater than 1000 mg/kg/day.

Question: And the NOAEL (rat [2]; [16])?
Answer: Its NOAEL is no less than 1000 mg/kg/day.

Question: What about the LEL (rat [2]; [17]) of the same compound?
Answer: The LEL was 250 mg/kg/day.

Question: And the NEL (rat [2]; [17])?
Answer: The NEL was less than 250 mg/kg/day.

Question: What about the LOAEL (dog; [18]) of the same compound?
Answer: Its LOAEL is greater than 40 mg/kg/day.

Question: What about the NOAEL (dog; [18]) of the same compound?
Answer: The NOAEL was no less than 40 mg/kg/day.

Question: What about the LEL (dog; [19]) of the same compound?
Answer: Its LEL is 4 mg/kg/day.

Question: What about the NEL (dog; [19]) of the same compound?
Answer: The NEL was less than 4 mg/kg/day.

Question: What does the source list for `Clc1ccc(Cl)cc1` [1,4-Dichlorobenzene]?
Answer: LOAEL (mouse [3]; [20]): > 300 ppm; NOAEL (mouse [3]; [20]): ≥ 300 ppm; NEL (mouse [3]; systemic / pathology microscopic / liver / hepatoblastoma + systemic / pathology microscopic / liver / hepatocellular carcinoma + systemic…): 20 ppm; LEL (mouse [3]; systemic / pathology microscopic / nose / metaplasia): 75 ppm; LEL (rat [4]): 150 mg/kg/day; LOAEL (rat [4]): 150 mg/kg/day; NEL (rat [4]): < 150 mg/kg/day; NOAEL (rat [4]): < 150 mg/kg/day; LEL (mouse [5]): 300 mg/kg/day; LOAEL (mouse [5]): 300 mg/kg/day; NEL (mouse [5]): < 300 mg/kg/day; NOAEL (mouse [5]): < 300 mg/kg/day; LEL (mouse [6]; [21]): 25 ppm; NEL (mouse [6]; [21]): < 25 ppm; NOAEL (mouse [6]; systemic / organ weight / liver / absolute + systemic / organ weight / liver / relative to body weight + systemic / clinical chemistry / …): 120 ppm; LOAEL (mouse [6]; systemic / organ weight / liver / relative to body weight + systemic / organ weight / liver / absolute + systemic / pathology microscopic / …): 270 ppm; LOAEL (rat [7]; [22]): > 300 ppm; NEL (rat [7]; [22]): 20 ppm; NOAEL (rat [7]; [22]): ≥ 300 ppm; LEL (rat [7]; systemic / pathology microscopic / nose / [other]): 75 ppm; LEL (rat [8]): 300 mg/kg/day; LOAEL (rat [8]): 300 mg/kg/day; NEL (rat [8]): 150 mg/kg/day; NOAEL (rat [8]): 150 mg/kg/day; LEL (rat [9]; [23]): 25 ppm; NEL (rat [9]; [23]): < 25 ppm; NOAEL (rat [9]; systemic / in life observation / body weight / body weight + systemic / organ weight / kidney / absolute + systemic / organ weight / kidney…): 120 ppm; LOAEL (rat [9]; systemic / organ weight / kidney / absolute + systemic / organ weight / kidney / relative to body weight + systemic / pathology microscopic…): 270 ppm; LEL (rat [10]): 300 mg/kg/day; LOAEL (rat [10]): 300 mg/kg/day; NEL (rat [10]): < 300 mg/kg/day; NOAEL (rat [10]): < 300 mg/kg/day; LEL (mouse [11]): 600 mg/kg/day; LOAEL (mouse [11]): 600 mg/kg/day; NEL (mouse [11]): < 600 mg/kg/day; NOAEL (mouse [11]): < 600 mg/kg/day; LEL (rat [12]; group: developmental, developmental / developmental malformation / bone / supernumerary): 500 mg/kg/day; LOAEL (rat [12]; [24]): > 1000 mg/kg/day; NEL (rat [12]; [24]): 250 mg/kg/day; NOAEL (rat [12]; [24]): ≥ 1000 mg/kg/day; LEL (rat [12]; [25]): 500 mg/kg/day; LOAEL (rat [12]; [25]): > 1000 mg/kg/day; NEL (rat [12]; [25]): 250 mg/kg/day; NOAEL (rat [12]; [25]): ≥ 1000 mg/kg/day; LEL (mouse [13]): 675 mg/kg/day; LOAEL (mouse [13]): 675 mg/kg/day; NEL (mouse [13]): 338 mg/kg/day; NOAEL (mouse [13]): 338 mg/kg/day
